test system: HCV replicon cells; assay: Cell-based HCV replicon assay (replicon RNA by Taqman real time PCR); settings: HCV replicon 1b, cells harvested on day 3; read-out: 1b EC50

Compound | EC50 [nM]
CCOc1nc(N)nc2c1ncn2[C@@H]1O[C@@H]2COP(=O)(OC3CCC3)O[C@H]2[C@@]1(C)N=[N+]=[N-] (single isomer, unassigned) [Compound 107] | 18600
CC(C)OP1(=O)OC[C@H]2O[C@@H](n3ccc(=O)[nH]c3=O)[C@](C)(N=[N+]=[N-])[C@@H]2O1 (single isomer, unassigned) [Compound 563] | > 100000

same assay, conditions: Hepatitis C virus, 72 h, HCV replicon 1b, cells harvested on day 3; read-out: 1b EC50

Compound | EC50 [nM]
CCCC(CCC)COC(=O)[C@H](C)NP(=O)(O)OC[C@H]1O[C@@H](n2ccc(N)nc2=O)[C@](C)(N=[N+]=[N-])[C@@H]1O [Compound 318] | 100000
CC(C)OP1(=O)OC[C@H]2O[C@@H](n3ccc(N)nc3=O)[C@](C)(N=[N+]=[N-])[C@@H]2O1 (some centres unmarked) [Compound 19] | > 100000
C[C@@]1(N=[N+]=[N-])[C@H](O)[C@@H](CO)O[C@H]1n1cnc2c(N3CCC3)nc(N)nc21 [Compound 137] | > 100000
CCOc1nc(N)nc2c1ncn2[C@@H]1O[C@@H]2COP(=O)(NC3CCCCC3)O[C@H]2[C@@]1(C)N=[N+]=[N-] (some centres unmarked) [Compound 572] | 100000
CCOc1nc(N)nc2c1ncn2[C@@H]1O[C@@H]2COP(=O)(OC3CCCCC3)O[C@H]2[C@@]1(C)N=[N+]=[N-] (some centres unmarked) [Compound 106] | 49900

same assay, conditions: Hepatitis C virus, 72 h, read-out: 1b EC50

Compound | EC50 [nM]
COP1(=O)OC[C@H]2O[C@@H](n3ccc(=O)[nH]c3=O)[C@](C)(N=[N+]=[N-])[C@@H]2O1 (some centres unmarked) [Compound 18] | > 100000
COC(=O)[C@H](C)NP(=O)(OC[C@H]1O[C@@H](n2ccc(=O)[nH]c2=O)[C@](C)(N=[N+]=[N-])[C@@H]1O)Oc1cc(C)ccc1C(C)C (some centres unmarked) [Compound 379] | 1200
COC(=O)[C@H](C)NP(=O)(OC[C@H]1O[C@@H](n2ccc(=O)[nH]c2=O)[C@](C)(N=[N+]=[N-])[C@@H]1O)Oc1ccccc1 (single isomer, unassigned) [Compound 158] | 9000
C[C@@H](NP(=O)(OC[C@H]1O[C@@H](n2ccc(=O)[nH]c2=O)[C@](C)(N=[N+]=[N-])[C@@H]1O)Oc1ccccc1)C(=O)OCc1ccccc1 (some centres unmarked) [Compound 45] | 5600
CCOc1nc(N)nc2c1ncn2[C@@H]1O[C@H](COP(=O)(N[C@@H](C)C(=O)OC)Oc2cccc3ccccc23)[C@@H](O)[C@@]1(C)N=[N+]=[N-] (single isomer, unassigned) [Compound 355] | 1300
CCOC(=O)[C@H](C)NP(=O)(OC[C@H]1O[C@@H](n2cnc3c(OCC)nc(N)nc32)[C@](C)(N=[N+]=[N-])[C@@H]1O)Oc1ccccc1Cl (some centres unmarked) [Compound 349] | 2000
CCCCOC(=O)[C@H](C)NP(=O)(OC[C@H]1O[C@@H](n2cnc3c(OCC)nc(N)nc32)[C@](C)(N=[N+]=[N-])[C@@H]1O)Oc1ccc(Cl)cc1 (some centres unmarked) [Compound 368] | 80
C[C@H](NP(=O)(OC[C@H]1O[C@@H](n2ccc(=O)[nH]c2=O)[C@](C)(N=[N+]=[N-])[C@@H]1O)Oc1ccccc1)C(=O)OCc1ccccc1 (some centres unmarked) [Compound 299] | 5600
CCOC(=O)[C@H](C)NP(=O)(OC[C@H]1O[C@@H](n2ccc(=O)[nH]c2=O)[C@](C)(N=[N+]=[N-])[C@@H]1O)Oc1ccccc1 (some centres unmarked) [Compound 15] | 1400
CCOC(=O)[C@H](C)NP(=O)(OC[C@H]1O[C@@H](n2cnc3c(OC)nc(N)nc32)[C@](C)(N=[N+]=[N-])[C@@H]1O)Oc1ccc(F)cc1 (some centres unmarked) [Compound 247] | 700
CCOC(=O)[C@H](C)NP(=O)(OC[C@H]1O[C@@H](n2cnc3c(OCC)nc(N)nc32)[C@](C)(N=[N+]=[N-])[C@@H]1O)Oc1ccc(F)cc1 (single isomer, unassigned) [Compound 175] | 400
CCOC(=O)[C@H](C)NP(=O)(OC[C@H]1O[C@@H](n2ccc(=O)[nH]c2=O)[C@](C)(N=[N+]=[N-])[C@@H]1O)Oc1ccc(Cl)cc1 (some centres unmarked) [Compound 49] | 5300
COc1nc(N)nc2c1ncn2[C@@H]1O[C@H](COP(=O)(N[C@@H](C)C(=O)OCC(C)C)Oc2ccccc2)C(O)[C@@]1(C)N=[N+]=[N-] (single isomer, unassigned) [Compound 276] | 2700
CC(C)OC(=O)[C@H](C)NP(=O)(OC[C@H]1O[C@@H](n2ccc(=O)[nH]c2=O)[C@](C)(N=[N+]=[N-])[C@@H]1O)Oc1ccc2c(c1)OCO2 (some centres unmarked) [Compound 42] | 25000
CCCCOC(=O)[C@H](C)NP(=O)(OC[C@H]1O[C@@H](n2cnc3c(OC)nc(N)nc32)[C@](C)(N=[N+]=[N-])C1O)Oc1ccccc1 (single isomer, unassigned) [Compound 262] | 2400
CCOc1nc(N)nc2c1ncn2[C@@H]1O[C@H](COP(=O)(N[C@@H](C)C(=O)OC)Oc2ccc(Cl)cc2)[C@@H](O)[C@@]1(C)N=[N+]=[N-] (some centres unmarked) [Compound 63] | 400
CCOC(=O)[C@H](C)NP(=O)(OC[C@H]1O[C@@H](n2cnc3c(N4CCC4)nc(N)nc32)[C@](C)(N=[N+]=[N-])[C@@H]1O)Oc1ccccc1 (some centres unmarked) [Compound 391] | 1500
COc1nc(N)nc2c1ncn2[C@@H]1O[C@H](COP(=O)(N[C@@H](C)C(=O)OCC(C)C)Oc2ccc(Cl)cc2)[C@@H](O)[C@@]1(C)N=[N+]=[N-] (single isomer, unassigned) [Compound 295] | 200

same assay, conditions: read-out: 1b EC50

Compound | EC50 [nM]
COC(=O)[C@H](C)NP(=O)(OC[C@H]1O[C@@H](n2cnc3c(N4CCC4)nc(N)nc32)[C@](C)(N=[N+]=[N-])[C@@H]1O)Oc1ccccc1Cl (some centres unmarked) [Compound 389] | 2300
COC(=O)[C@H](C)NP(=O)(OC[C@H]1O[C@@H](n2cnc3c(OC)nc(N)nc32)[C@](C)(N=[N+]=[N-])[C@@H]1O)Oc1ccc(Cl)cc1 (single isomer, unassigned) [Compound 259] | 600
C[C@H](NP(=O)(OC[C@H]1O[C@@H](n2ccc(=O)[nH]c2=O)[C@](C)(N=[N+]=[N-])[C@@H]1O)Oc1ccccc1)C(=O)OCC(C)(C)C (single isomer, unassigned) [Compound 153] | 19000
COC(=O)[C@H](C)NP(=O)(OC[C@H]1O[C@@H](n2cnc3c(OC)nc(N)nc32)[C@](C)(N=[N+]=[N-])[C@@H]1O)Oc1ccc(F)cc1 (single isomer, unassigned) [Compound 266] | 2400
CCCOC(=O)[C@H](C)NP(=O)(OC[C@H]1O[C@@H](n2cnc3c(OC)nc(N)nc32)[C@](C)(N=[N+]=[N-])C1O)Oc1ccccc1 (single isomer, unassigned) [Compound 288] | 900
CCOc1nc(N)nc2c1ncn2[C@@H]1O[C@H](COP(=O)(N[C@@H](C)C(=O)OCc2ccccc2)Oc2ccccc2)[C@@H](O)[C@@]1(C)N=[N+]=[N-] (single isomer, unassigned) [Compound 351] | 2600
CC(C)COC(=O)[C@H](C)NP(=O)(OC[C@H]1O[C@@H](n2ccc(=O)[nH]c2=O)[C@](C)(N=[N+]=[N-])[C@@H]1O)Oc1ccccc1 (some centres unmarked) [Compound 37] | 3500
CCOc1nc(N)nc2c1ncn2[C@@H]1O[C@H](COP(=O)(N[C@@H](C)C(=O)OC)Oc2ccccc2)[C@@H](O)[C@@]1(C)N=[N+]=[N-] (single isomer, unassigned) [Compound 143] | 600
CCOC(=O)[C@H](C)NP(=O)(OC[C@H]1O[C@@H](n2ccc(N)nc2=O)[C@](C)(N=[N+]=[N-])[C@@H]1O)Oc1ccc(Cl)cc1 (single isomer, unassigned) [Compound 189] | 22000
COC(=O)[C@H](C)NP(=O)(OC[C@H]1O[C@@H](n2cnc3c(OC)nc(N)nc32)[C@](C)(N=[N+]=[N-])C1O)Oc1ccccc1 (single isomer, unassigned) [Compound 260] | 3600
C[C@H](NP(=O)(OC[C@H]1O[C@@H](n2ccc(=O)[nH]c2=O)[C@](C)(N=[N+]=[N-])[C@@H]1O)Oc1ccccc1)C(=O)OCc1ccccc1 (single isomer, unassigned) [Compound 301] | 2700
CCCCOC(=O)[C@H](C)NP(=O)(OC[C@H]1O[C@@H](n2cnc3c(OCC)nc(N)nc32)[C@](C)(N=[N+]=[N-])[C@@H]1O)Oc1ccccc1 (single isomer, unassigned) [Compound 168] | 1500
COC(=O)c1ccccc1OP(=O)(N[C@@H](C)C(=O)OC)OC[C@H]1O[C@@H](n2ccc(=O)[nH]c2=O)[C@](C)(N=[N+]=[N-])[C@@H]1O (single isomer, unassigned) [Compound 228] | 1300
CCOc1nc(N)nc2c1ncn2[C@@H]1O[C@H](COP(=O)(N[C@@H](C)C(=O)OC2CCC2)Oc2ccccc2)[C@@H](O)[C@@]1(C)N=[N+]=[N-] (single isomer, unassigned) [Compound 362] | 2600
C[C@H](NP(=O)(OC[C@H]1O[C@@H](n2ccc(=O)[nH]c2=O)[C@](C)(N=[N+]=[N-])[C@@H]1O)Oc1ccccc1)C(=O)O[C@H](C)c1ccccc1 (single isomer, unassigned) [Compound 303] | 46900
CCOc1nc(N)nc2c1ncn2[C@@H]1O[C@H](COP(=O)(N[C@@H](C)C(=O)OC2CCCCC2)Oc2ccc(Cl)cc2)[C@@H](O)[C@@]1(C)N=[N+]=[N-] (single isomer, unassigned) [Compound 314] | 1300
COC(=O)[C@H](C)NP(=O)(OC)OC[C@H]1O[C@@H](n2ccc(N)nc2=O)[C@](C)(N=[N+]=[N-])[C@@H]1O (single isomer, unassigned) [Compound 346] | > 100000
CCOC(=O)[C@H](C)NP(=O)(OC[C@H]1O[C@@H](n2ccc(=O)[nH]c2=O)[C@](C)(N=[N+]=[N-])[C@@H]1O)Oc1ccccc1 (single isomer, unassigned) [Compound 151] | 5100
CCOc1nc(N)nc2c1ncn2[C@@H]1O[C@H](COP(=O)(N[C@@H](C)C(=O)OC)Oc2ccc(Cl)cc2)[C@@H](O)[C@@]1(C)N=[N+]=[N-] (single isomer, unassigned) [Compound 312] | 2200
CCOc1nc(N)nc2c1ncn2[C@@H]1O[C@H](COP(=O)(N[C@@H](C)C(=O)OC(C)C)Oc2ccc(Cl)c(Cl)c2)[C@@H](O)[C@@]1(C)N=[N+]=[N-] (single isomer, unassigned) [Compound 361] | 11200
CCOc1nc(N)nc2c1ncn2[C@@H]1O[C@H](COP(=O)(N[C@@H](C)C(=O)OCC(C)C)Oc2ccccc2)[C@@H](O)[C@@]1(C)N=[N+]=[N-] (some centres unmarked) [Compound 61] | 800
CCCCOC(=O)[C@H](C)NP(=O)(OC[C@H]1O[C@@H](n2ccc(=O)[nH]c2=O)[C@](C)(N=[N+]=[N-])[C@@H]1O)Oc1cccc2ccccc12 (single isomer, unassigned) [Compound 156] | 1500

From patent US9156872B2, “2′-azido substituted nucleoside derivatives and methods of use thereof for the treatment of viral diseases” (priority 2011, dated 2015)
